According to patent US7625887B2, “Receptor agonists” (Takeda Pharmaceutical Company Limited, priority 2003, dated 2009):

How the values were obtained:
rat TGR5 = target: T1, rat TGR5 (Rattus norvegicus, UniProt Q80T02); assay: cAMP production increasing activity in rat type TGR5 expressing CHO cells; assay type: cell-based; details: 0.5 h, read-out: cAMP producing activity (control %)
T1 construct: expressed in transfected cells; host or cells: CHO cells
T1 sequence (Q80T02 1-329): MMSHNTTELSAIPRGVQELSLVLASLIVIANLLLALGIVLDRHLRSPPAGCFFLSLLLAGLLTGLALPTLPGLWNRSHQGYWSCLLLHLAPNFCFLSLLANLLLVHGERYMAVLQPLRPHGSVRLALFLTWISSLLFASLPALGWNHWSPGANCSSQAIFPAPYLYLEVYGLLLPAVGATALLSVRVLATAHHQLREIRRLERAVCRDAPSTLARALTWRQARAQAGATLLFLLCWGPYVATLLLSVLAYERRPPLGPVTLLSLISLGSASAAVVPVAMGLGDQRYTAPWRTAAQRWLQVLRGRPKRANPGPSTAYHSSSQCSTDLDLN
Description: (§1) After culture, the cells were detached with 0.5 mM EDTA/PBS, washed with PBS, and suspended in Buffer 1 (HBSS+0.1% BSA, 25 mM HEPES pH 7.3, 0.5 mM IBMX) at a density of 1×10^7 cells/ml. The obtained cell suspension (460 μl), anti-cAMP acceptor beads (23 μl) of AlphaScreen cAMP assay kit (Perkin Elmer) and Buffer 1 (667 μl) were mixed and dispensed to a white 96 well plate (Costar) by 10 μl. Then, a test compound diluted with Buffer 1 was added to each well by 10 μl. At this time, one row of the plate was free of the cell suspension but added with anti-cAMP acceptor beads (9 μl) and Buffer 1 (441 μl) alone, and serial dilutions of cAMP were added instead of the test compound and used as the standard. A mixture of the cell suspension and the test compound contained in the plate was allowed to react at room temperature for 30 min. […] The plate was shaken at room temperature for 2.5 hrs and fluorescence intensity was measured by Fusion α (Parkin Elmer), and the cAMP concentration of each well was calculated using the cAMP standard on each plate.

human TGR5 [1] = target: T2, human TGR5 (Homo sapiens, UniProt Q8TDU6); assay: cAMP production increasing activity in human TGR5 expressing CHO cells; assay type: cell-based; details: read-out: EC50 value (concentration necessary to make the cAMP production amount 50%)
T2 construct: expressed in transfected cells; host or cells: CHO cells
T2 sequence (Q8TDU6 1-330): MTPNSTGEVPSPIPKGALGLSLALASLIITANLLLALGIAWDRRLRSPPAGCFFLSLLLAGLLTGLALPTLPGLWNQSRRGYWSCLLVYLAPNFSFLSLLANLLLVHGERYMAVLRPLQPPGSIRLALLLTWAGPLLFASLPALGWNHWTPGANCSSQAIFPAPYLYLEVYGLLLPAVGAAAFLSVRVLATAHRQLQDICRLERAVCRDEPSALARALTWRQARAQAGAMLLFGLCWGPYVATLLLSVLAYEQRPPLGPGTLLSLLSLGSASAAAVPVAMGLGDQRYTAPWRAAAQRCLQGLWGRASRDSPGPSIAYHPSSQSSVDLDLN

[2] = system: rat intestine primary culture cells; assay: GLP-1 secretion from rat intestine primary culture cells; assay type: cell-based; details: test compound 20 μM, 150 min
Description: Terminal ileum and colon mucous membrane were removed from rat (Wistar, male, Charles River Japan, Inc.) and subjected to an enzyme treatment to give a cell dispersion according to the following method.
The enzyme solution used was obtained by dissolving 5 mg/ml Collagenase (Sigma), 5 mg/ml Hyaluronidase (Sigma) and 0.5 mg/ml DNaseI (Sigma) in a medium. The medium used was Dulbecco's Modified Eagle Medium (DMEM, Invitrogen) supplemented with 4.5 g/l Glucose, 5% FBS (Invitrogen), 100 units/ml Penicillin (Invitrogen), 100 μg/ml Streptomycin (Invitrogen), 50 μg/ml Gentamicin (Invitrogen) and 20 mM Hepes (pH 7.3). After digestion by the enzyme solution at 37° C., the tissue sections were prepared into dispersed cells by passing through a pipette 7 times and the cells were collected. The collected cells were washed with a buffer (incubation buffer) obtained by adding 5.5 mM Glucose and 0.1% BSA to a modified Krebs-Ringer bicarbonate buffer (KRBH, 116 mM NaCl, 4.7 mM KCl, 1.2 mM KH2PO4, 1.2 mM MgSO4, 2.5 mM CaCl2, 25 mM NaHCO3, 24 mM HEPES, pH 7.3), and preincubated at 37° C. under 5% CO2 for 30 min. 0.1 μM Phorbol ester (Wako), 1% DPPIV inhibitor (Linco) and a test compound were added to the above-mentioned incubation buffer, and the obtained buffer was added to the cells after the aforementioned preincubation and incubated for 150 min. The culture supernatant was collected and cryopreserved. The concentration of GLP-1 released in the culture supernatant was measured using an ELISA kit (Linco).

[3] = system: mock CHO cells free of human TGR5 expression; assay: cAMP production increasing activity in mock CHO cells free of human TGR5 expression; assay type: cell-based; details: Experimental Example 5; test compounds 2 μM; Base 0.19; average of 3 groups
Description: (§2) As the assay buffer, Hank's balanced salt solution (HBSS, Invitrogen) supplemented with 0.1% bovine serum albumin (BSA, Sigma) and 0.2 mM 3-isobutyl-1-methylxanthine (IBMX, Sigma) was used. The cells were washed twice with the assay buffer and preincubated at 37° C. for 30 min. The cells were washed twice, and test compound samples (10 μM) diluted with the assay buffer to various concentrations were added. The cells were incubated at 37° C. for 20 min. The culture supernatant was discarded, and the cAMP production amount was measured using a cAMP Screen System (ABI).

rabbit TGR5 = target: T3, rabbit TGR5 (Oryctolagus cuniculus, UniProt Q862A8); assay: cAMP production increasing activity in rabbit TGR5 expressing CHO cells; assay type: cell-based; details: Experimental Example 6; 2 μM; 10 μM lithocholic acid = 100%; average of 3 groups
T3 construct: expressed in transfected cells; host or cells: CHO cells
T3 sequence (Q862A8 1-330): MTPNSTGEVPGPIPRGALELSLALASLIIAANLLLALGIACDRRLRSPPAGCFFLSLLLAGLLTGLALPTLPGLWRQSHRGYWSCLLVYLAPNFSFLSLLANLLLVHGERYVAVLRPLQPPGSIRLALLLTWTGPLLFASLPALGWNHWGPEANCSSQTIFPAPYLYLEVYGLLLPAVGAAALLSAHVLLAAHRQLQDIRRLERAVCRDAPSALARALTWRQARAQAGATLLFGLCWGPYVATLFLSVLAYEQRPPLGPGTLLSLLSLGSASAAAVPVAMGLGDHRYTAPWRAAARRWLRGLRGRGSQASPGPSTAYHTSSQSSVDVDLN
Description: as §2, with “twice” for “twice,”, “(2” for “(10”, “buffer” for “buffer to various concentrations”

NCI-H716 cells = assay: intracellular cAMP production increasing action in NCI-H716 cells; assay type: cell-based, human; details: 10 μM, 2 hrs; production amount in TLCA (50 μM) was 100%; Base 11
Description: NCI-H716 (ATCC) was suspended in a medium (Dulbecco's Modified Eagle Medium (DMEM, Invitrogen) supplemented with 10% fetal bovine serum (Invitrogen), 100 U/ml penicillin and 100 μg/ml streptomycin), seeded in a 96 well plate, cultured for 2 days and used for cAMP production assay. As a cAMP assay buffer, modified Krebs-Ringer bicarbonate buffer (KRBH, 116 mM NaCl, 4.7 mM KCl, 1.2 mM KH2PO4, 1.2 MM MgSO4, 2.5 mM CaCl2, 25 mM NaHCO3, 24 mM HEPES pH 7.3), supplemented with glucose 5.5 mM, bovine serum albumin (BSA) 0.1%, and 3-isobutyl-1-methylxanthine (IBMX, Sigma) 1 mM, was used. The cells were washed once with cAMP assay buffer. Bile acids (50 μM) diluted with cAMP assay buffer or the compounds of the present invention (10 μM) were added thereto and the cells were incubated for 2 hrs. The culture supernatant was discarded, and the cAMP production amount was measured by cAMP Screen System (ABI). In the Table, Base means non-addition of a test compound.

human TGR5 [4] = target: T2, human TGR5; assay: cAMP production increasing activity in human TGR5 expressing CHO cells; assay type: cell-based; details: test compound 1 μM, 30 min; 1 μM lithocholic acid = 100%, no addition = 0%; average of 3 groups
guinea pig TGR5 = assay: cAMP production increasing activity in guinea pig TGR5 expressing CHO cells; assay type: cell-based; details: test compound 2 μM; 10 μM lithocholic acid = 100%; average of 3 groups
Description: as §1, with “The guinea pig type TGR5 expressing CHO cells were seeded in one 150 cm^2 flask at 1×10^7 cells, and cultured overnight at 37° C., 5% CO2. After” for “After”

SMILES: CC(=O)NCc1cccc(C2OC(CC(=O)NCc3ccccc3F)C(=O)N(CC(C)(C)C)c3ccc(Cl)cc32)c1 (single isomer, unassigned; (+)) [Reference Example 33, (+)-2-[3,5-trans-5-[3-(acetylaminomethyl)phenyl]-7-chloro-1-neopentyl-2-oxo-1,2,3,5-tetrahydro-4,1-benzoxazepin-3-yl]-N-(2-fluorobenzyl)acetamide]
- activation at 2 µM (rat TGR5): 92%
- EC50 (human TGR5 [1]): < 100 nM
- GLP-1 (% relative to non-addition) [2]: 201 % relative to non-addition

SMILES: FC(F)(F)c1cc(CN2CCOc3nccc(-c4ccccc4)c3C2)cc(C(F)(F)F)c1 [Example 9C, 4-[3,5-bis(trifluoromethyl)benzyl]-6-phenyl-2,3,4,5-tetrahydropyrido[3,2-f][1,4]oxazepine]
- activation at 2 µM (rat TGR5): 112%
- cAMP production increasing activity [3]: 0.2 pmol
- cAMP production increasing activity (control %) (rabbit TGR5): 99 control %
- cAMP production increasing activity (%) (NCI-H716 cells): 109%
- cAMP production increasing activity (control %) (human TGR5 [4]): 96 control %

SMILES: FC(F)(F)c1cc(CN2CCCOc3nccc(-c4ccccc4)c3C2)cc(C(F)(F)F)c1.FC(F)(F)c1cc(CN2CCCOc3nccc(-c4ccccc4)c3C2)cc(C(F)(F)F)c1.O=S(=O)(O)O [Example 18C, 5-[3,5-bis(trifluoromethyl)benzyl]-7-phenyl-3,4,5,6-tetrahydro-2H-pyrido[2,3-b][1,5]oxazocine ½sulfate]
- cAMP production increasing activity [3]: 0.17 pmol
- cAMP production increasing activity (control %) (rabbit TGR5): 106 control %
- cAMP production increasing activity (control %) (human TGR5 [4]): 112 control %

SMILES: O=S(=O)(c1cc(C(F)(F)F)cc(C(F)(F)F)c1)N1CCCOc2nccc(-c3ccccc3)c2C1 [Example 23C, 5-{[3,5-bis(trifluoromethyl)phenyl]sulfonyl}-7-phenyl-3,4,5,6-tetrahydro-2H-pyrido[2,3-b][1,5]oxazocine]
- activation at 2 µM (rat TGR5): 148%
- GLP-1 (% relative to non-addition) [2]: 133 % relative to non-addition
- cAMP producing activity (control %) (guinea pig TGR5): 119 control %

SMILES: CC(c1cc(C(F)(F)F)cc(C(F)(F)F)c1)N1CCOc2nccc(-c3ccccc3)c2C1.Cl (stereo not drawn) [Example 33C, 4-{1-[3,5-bis(trifluoromethyl)phenyl]ethyl}-6-phenyl-2,3,4,5-tetrahydropyrido[3,2-f][1,4]oxazepine hydrochloride]
- activation at 2 µM (rat TGR5): 149%
- EC50 (human TGR5 [1]): < 100 nM
- GLP-1 (% relative to non-addition) [2]: 214 % relative to non-addition
- cAMP producing activity (control %) (guinea pig TGR5): 111 control %
